Earlier results on one compound are cited in publication PMC10112232, “Comparison of Toxicities among Different Bumped Kinase Inhibitor Analogs for Treatment of Cryptosporidiosis” (Antimicrobial Agents and Chemotherapy, 2023).

Like-named read-outs stand apart in the source and are kept apart here.

The conditions of this data set: cited from earlier work; for HR / MAP / dP/dt@50: rat.

Regarding `CCOc1ccc2cc(-c3nn(C(C)(C)CCO)c(N)c3C(N)=O)ccc2c1` [BKI-1770], where the note is “anesthetized rats, 30-minute IV infusions of 3, 10, 30 mg/kg, significant >15%”, the “effects on MAP, HR, left ventricular contractility vs vehicle” value was “No significant effects”. Under “IV 3 mg/kg”, the HR was 8%, the MAP was -7% and the “dP/dt@50” value is listed as 0%. In addition, under “IV 10 mg/kg”, the HR was 8%, the MAP is on record as 5% and the “dP/dt@50” value was 9%. For the same compound, under “IV 30 mg/kg”, the HR is reported as 3%, the MAP is on record as -7% and the “dP/dt@50” value is recorded as 8%. Where the note is “rats”, the signs of cardiotoxicity entry is “no signs of cardiotoxicity”.
